Here are results for 22 molecules from patent publication US20140128339A1, “2'-METHYL SUBSTITUTED NUCLEOSIDE DERIVATIVES AND METHODS OF USE THEREOF FOR THE TREATMENT OF VIRAL DISEASES” (priority 2012, published 2014).

As usually defined, the EC50 is the concentration that produces a half-maximal response. One may read the Ki as a measure of affinity in units of concentration, obtained from inhibition or displacement. The low end stands for higher affinity, the high end for lower affinity.

Structures are written as SMILES. Bounds are passed on as bounds.

One data set has as its system replicon cells (1b-Con1). Kind of data set: microbe, parasite or virus in culture. The data set is classed as cell-based, HCV. As to conditions: Hepatitis C virus, 72 h; 1b-Con1 replicon cells, three days post-dosing, Taqman RT-PCR with GAPDH RNA as control. (In general: A replicon is a self-replicating genome or part of one, used to study replication in cells.)
In a further data set the test system is replicon cells. As to conditions: CC50, MTS assay three days post dosing in replicon cells.
Data set [1] has as its target T1, HCV NS5B RNA-dependent RNA polymerase (1b-BKΔ55) (Hepatitis C virus genotype 1b, UniProt P26663).
T1 construct: 5 nM NS5B (1b-BKΔ55) enzyme
Kind of data set: Inhibition of HCV NS5B polymerase by nucleoside triphosphate analogs (radiolabeled nucleotide incorporation assay). Format: biochemical. As for the experimental part:
To measure inhibition of the enzymatic activity of the HCV NS5B RNA-dependent RNA polymerase by the nucleoside triphosphate compounds of the present invention, a radiolabeled nucleotide incorporation assay was used. This assay is a modified version of the assay described in International Publication No. WO2002/057287. Briefly, 50 μL reactions containing 20 mM HEPES (pH 7.3); 7.5 mM DTT; 20 units/ml RNasIN; 1 μM each of ATP, GTP, UTP and CTP; 20 μCi/mL [^33P]-CTP; 10 mM MgCl; 60 mM NaCl; 100 μg/ml BSA; […] heteropolymer RNA template; and 5 nM NS5B (1b-BKΔ55) enzyme are incubated at room temperature for 1 hour. The assay is then terminated by the addition of 500 mM EDTA (50 μl). The reaction mixture is transferred to a Millipore DE81 filter plate and the incorporation of labeled CTP is determined using Packard TopCount. Compound IC50 values can then be calculated from experiments with 10 serial 3-fold dilutions of the inhibitor in duplicate.
Data was obtained using this method for the NTP analogs of selected compounds below of the present invention, and is set forth below. […] Data is also presented for comparative compounds, labeled as Compound B and Compound C.

T1 sequence (P26663 2420-2955, stated change not applied): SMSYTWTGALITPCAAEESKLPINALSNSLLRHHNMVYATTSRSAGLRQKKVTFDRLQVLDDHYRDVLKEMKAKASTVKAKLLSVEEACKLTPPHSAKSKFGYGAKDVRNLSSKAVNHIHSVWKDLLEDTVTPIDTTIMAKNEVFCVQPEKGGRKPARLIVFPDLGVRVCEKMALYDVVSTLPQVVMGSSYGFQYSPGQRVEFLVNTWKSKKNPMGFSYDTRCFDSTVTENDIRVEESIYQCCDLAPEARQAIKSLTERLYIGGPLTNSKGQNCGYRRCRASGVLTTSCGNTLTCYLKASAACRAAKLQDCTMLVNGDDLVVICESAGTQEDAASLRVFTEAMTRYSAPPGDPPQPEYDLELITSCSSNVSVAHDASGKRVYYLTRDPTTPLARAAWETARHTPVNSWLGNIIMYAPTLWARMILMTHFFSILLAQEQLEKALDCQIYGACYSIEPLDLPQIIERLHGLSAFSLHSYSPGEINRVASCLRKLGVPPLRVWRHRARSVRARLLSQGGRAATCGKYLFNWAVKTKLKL

As for `CC(C)NC(=O)O[C@@H]1[C@@H](COP(=O)(N[C@@H](C)C(=O)OC(C)C)Oc2ccccc2)O[C@@H](n2ccc(=O)[nH]c2=O)[C@]1(C)C#N` (some centres unmarked) [Compound 27], in the data set on replicon cells (1b-Con1), the EC50 was over 100000 nM. In addition, in the data set with replicon cells, the Cytotoxicity was over 100 µM.
For `CC(C)OC(=O)[C@H](C)NP(=O)(OC[C@H]1O[C@@H](n2ccc(=O)[nH]c2=O)[C@](C)(C#N)[C@@H]1OC(=O)C1CCC1)Oc1ccccc1` (some centres unmarked) [Compound 25], the response with replicon cells (1b-Con1) was half-maximal at 700 nM (EC50). For the same molecule, in the data set on replicon cells, the Cytotoxicity is over 100 µM.
As to `CCCCCCCCCCCCCCCCCC(=O)O[C@@H]1[C@@H](CO[P@](=O)(N[C@@H](C)C(=O)OC(C)C)Oc2ccccc2)OC(n2ccc(N)nc2=O)[C@]1(C)C#N` (some centres unmarked) [Compound 8], the EC50 with replicon cells (1b-Con1) is 5090 nM. Besides, the Cytotoxicity in the data set with replicon cells stood at 6.54 µM.
Take `CCCCC(=O)O[C@@H]1[C@@H](COP(=O)(N[C@@H](C)C(=O)OC(C)C)Oc2ccccc2)O[C@@H](n2ccc(=O)[nH]c2=O)[C@]1(C)C#N` (some centres unmarked) [Compound 28]: in the data set on replicon cells (1b-Con1), the EC50 came out at 700 nM. This molecule also displayed a Cytotoxicity in the data set with replicon cells of 76 µM.
Molecule `C[C@@]1(N)[C@H](O)[C@@H](COP(=O)(O)OP(=O)(O)OP(=O)(O)O)O[C@H]1n1ccc(=O)[nH]c1=O` [Compound 35] came in with a Ki in data set [1] of 4.7 µM.
Take `CC(C)OC(=O)[C@H](C)N[P@@](=O)(OC[C@H]1OC(n2ccc(NC(=O)C(C)C)nc2=O)[C@](C)(C#N)[C@@H]1O)Oc1ccccc1` (some centres unmarked) [Compound 10]: it took 9500 nM to reach a half-maximal effect with replicon cells (1b-Con1) (EC50). The Cytotoxicity in the data set on replicon cells turned out to be 10 µM.
In the case of `CCCCCCCCCCCCCCCCCC(=O)Nc1ccn(C2O[C@H](CO[P@](=O)(N[C@@H](C)C(=O)OC(C)C)Oc3ccccc3)[C@@H](OC(=O)CCCCCCCCCCCCCCCCC)[C@@]2(C)C#N)c(=O)n1` (some centres unmarked) [Compound 13], in the data set with replicon cells (1b-Con1), the EC50 is over 100000 nM. Further, the Cytotoxicity with replicon cells is over 100 µM.
Consider `CC(C)OC(=O)[C@H](C)N[P@@](=O)(OC[C@H]1OC(n2ccc(N)nc2=O)[C@](C)(C#N)[C@@H]1OC(=O)C(C)C)Oc1ccccc1` (some centres unmarked) [Compound 7], for which the EC50 in the data set on replicon cells (1b-Con1) stood at 425 nM. In the data set on replicon cells, this molecule had a Cytotoxicity of over 100 µM.
For `CCCC(CCC)C(=O)O[C@@H]1[C@@H](COP(=O)(N[C@@H](C)C(=O)OC(C)C)Oc2ccccc2)O[C@@H](n2ccc(N)nc2=O)[C@]1(C)N=[N+]=[N-]` (some centres unmarked) [Compound 16], in that order: 100 nM and 13 µM.
For `CCCCCCCCCCCCCCCCCC(=O)Nc1ccn([C@@H]2O[C@H](COP(=O)(N[C@@H](C)C(=O)OC(C)C)Oc3ccccc3)[C@@H](O)[C@@]2(C)N=[N+]=[N-])c(=O)n1` (some centres unmarked) [Compound 20], in that order: 3600 nM and over 100 µM.
For `CC(C)OC(=O)[C@H](C)NP(=O)(OC[C@H]1O[C@@H](n2ccc(=O)[nH]c2=O)[C@](C)(C#N)[C@@H]1OC(=O)C1CC1)Oc1ccccc1` (some centres unmarked) [Compound 24], in that order: 6300 nM and over 100 µM.
For the molecule `CCCC(CCC)C(=O)O[C@@H]1[C@@H](COP(=O)(N[C@@H](C)C(=O)OC(C)C)Oc2ccccc2)O[C@@H](n2ccc(=O)[nH]c2=O)[C@]1(C)C#N` (some centres unmarked) [Compound 29], the EC50 in the data set with replicon cells (1b-Con1) is 190 nM. Also, the Cytotoxicity in the data set on replicon cells is 20 µM.
For `CCCCCCCCCCCCCCCCCC(=O)Nc1ccn(C2O[C@H](CO[P@](=O)(N[C@@H](C)C(=O)OC(C)C)Oc3ccccc3)[C@@H](O)[C@@]2(C)C#N)c(=O)n1` (some centres unmarked) [Compound 11], in that order: 1800 nM and 25 µM.
The matching figures for `CC(C)OC(=O)O[C@@H]1[C@@H](COP(=O)(N[C@@H](C)C(=O)OC(C)C)Oc2ccccc2)O[C@@H](n2ccc(=O)[nH]c2=O)[C@]1(C)C#N` (some centres unmarked) [Compound 26]: 1000 nM and over 100 µM.
`C#C[C@]1(C)[C@H](O)[C@@H](COP(=O)(O)OP(=O)(O)OP(=O)(O)O)O[C@H]1n1ccc(=O)[nH]c1=O` [Compound 36] yielded a Ki in data set [1] of 11 µM.
Still for that read-out and setting: the value for `C[C@@]1(N)[C@H](O)[C@@H](COP(=O)(O)OP(=O)(O)OP(=O)(O)O)O[C@H]1n1ccc(N)nc1=O` [Compound 34] was 0.05 µM.
As to `CC(C)OC(=O)[C@H](C)NP(=O)(OC[C@H]1O[C@@H](n2ccc(NC(=O)C(C)C)nc2=O)[C@](C)(N=[N+]=[N-])[C@@H]1OC(=O)C(C)C)Oc1ccccc1` (some centres unmarked) [Compound 18], it took 15000 nM to reach a half-maximal effect in the data set with replicon cells (1b-Con1) (EC50). For the same molecule, in the data set on replicon cells, the Cytotoxicity is over 100 µM.
For the molecule `CC(C)OC(=O)[C@H](C)NP(=O)(OC[C@H]1O[C@@H](n2ccc(NC(=O)C(C)C)nc2=O)[C@](C)(C#N)[C@@H]1OC(=O)C(C)C)Oc1ccccc1` (some centres unmarked) [Compound 12], in the data set on replicon cells (1b-Con1), the EC50 worked out at 10000 nM. Besides, the Cytotoxicity in the data set on replicon cells was 76 µM.
In the case of `CC(C)OC(=O)[C@H](C)NP(=O)(OC[C@H]1O[C@@H](n2ccc(NC(=O)C(C)C)nc2=O)[C@](C)(N=[N+]=[N-])[C@@H]1O)Oc1ccccc1` (some centres unmarked) [Compound 19], the midpoint of the response with replicon cells (1b-Con1), the EC50, lay at 8500 nM. In addition, the Cytotoxicity in the data set on replicon cells is over 100 µM.
The matching figures for `CCCCCCCCCCCCCCCCCC(=O)O[C@@H]1[C@@H](COP(=O)(N[C@@H](C)C(=O)OC(C)C)Oc2ccccc2)O[C@@H](n2ccc(N)nc2=O)[C@]1(C)N=[N+]=[N-]` (some centres unmarked) [Compound 17]: 8200 nM and 9.9 µM.
Take `CC(C)OC(=O)[C@H](C)NP(=O)(OC[C@H]1O[C@@H](n2ccc(=O)[nH]c2=O)[C@](C)(C#N)[C@@H]1OC(=O)C(C)C)Oc1ccccc1` (some centres unmarked) [Compound 23]: it took 700 nM to reach a half-maximal effect in the data set with replicon cells (1b-Con1) (EC50). In the data set on replicon cells, this molecule showed a Cytotoxicity of over 100 µM.
In turn, `CC(C)OC(=O)[C@H](C)NP(=O)(OC[C@H]1O[C@@H](n2ccc(N)nc2=O)[C@](C)(N=[N+]=[N-])[C@@H]1OC(=O)C(C)C)Oc1ccccc1` (some centres unmarked) [Compound 15] yielded an EC50 with replicon cells (1b-Con1) of 600 nM. The molecule also showed a Cytotoxicity in the data set on replicon cells of over 100 µM.
